Measurements from patent publication US9241972B2, “Use of Wnt agents to prevent hypoxic injury” (THE BOARD OF TRUSTEES OF THE LELAND STANFORD JUNIOR …, priority 2011, dated 2016).
“Also recorded” adds a separate entry of the source.

Columns and labels:
HIF-1 = HIF-1 / HRE luciferase reporter assay (and HIF-1α immunoblot) in AML12 hepatocytes; assay type: cell-based, mouse
Experimental: (§1) The differentiated non-transformed mouse hepatocyte cell line AML12 (ATCC Inc.) was cultured in Dulbecco's […] (DMEM)/F-12 media (1:1) supplemented with 10% fetal bovine serum (FBS), 1% penicillin-streptomycin antibiotics and 5 μg/ml insulin, 5 μg/ml transferrin, 5 ng/ml selenium as previously described (62). The human hepatocellular carcinoma cell lines Huh7 and HepG2 were grown in DMEM media containing 10% FBS and 1% penicillin-streptomycin antibiotics. Media was purchased from Hyclone (Logan, Utah). All other medium components were purchased from Invitrogen (Carlsbad, Calif.). Cultures were maintained at 37° C. in a hunified 5% CO2 atmosphere. For hypoxic conditions, cells were grown at 1% O2 in a custom-designed incubator (XVivo Hypoxia Chamber; BioSpherix) for 24 hrs.
Western Blot Analysis and Immunoprecipitation. […]
For the reporter assay, cells were seeded in a 24-well plate under triplicate conditions at 80% confluency. […] After 2 days, luciferase and galactosidase expression were measured using the Dual-Light Reporter Gene Assay (Applied Biosystems, Foster City, Calif.) according to the manufacturer's instructions. […]

AML12 hepatocytes [1] = test: Apoptosis under hypoxia by MTT assay and immunoblot for caspase-cleaved K18Asp237; assay type: cell-based, mouse; settings: YC-1 pre-treatment (100 μmol/L) for 1 hour
Experimental: Western Blot Analysis and Immunoprecipitation. Cells were treated with actinomycin D and TNFα, hydrogen peroxide (H2O2), hypoxia 1% for 24 hours or pre-treated with N-acetylcysteine (NAC), cobalt chloride (CoCl2), YC-1 (Alexis Biochemicals, San Diego, Calif.), Resveratrol or nicotinamide (NAM) as described in the figure legends. All other chemicals were purchased from Sigma Aldrich (Sigma Aldrich, St. Louis, Mo.). Total proteins (30 μg) were lysed with RIPA lysis buffer and separated by sodium dodecylsulfate-polyacrylamide gel electrophoresis. […]
For the assessment of cell proliferation and survival, a commercially available MTT (3-(4,5-dimethylthiazol-2-yl)-2,5-diphenyltetrazolium bromide) cell proliferation assay (Roche Applied Science, Indianapolis, Ind.) was used according to the manufacturer instructions. Absorbance was measured at 570 nm using a spectrophotometer.
Apoptosis was measured by western blot using Asp237 antibody that recognizes caspase-cleaved keratin18 or by using Caspase-Glo 3/7 Assay following the manusfacturer's instructions (Promega Corporation, Madison, Wis.). […] Caspase-Glo 3/7 reagent was added to each well in a 1:1 ratio and incubated for one hour before measuring luminescence using a LB96B dual injector luminometer (Berthold Technologies, Oak Ridge, Tenn.).

β-catenin/TCF signaling = test: β-catenin/TCF luciferase reporter assay in AML12 hepatocytes; assay type: cell-based
Experimental: as §1
Western Blot Analysis and Immunoprecipitation. Cells were treated with actinomycin D and TNFα, hydrogen peroxide (H2O2), hypoxia 1% for 24 hours or pre-treated with N-acetylcysteine (NAC), cobalt chloride (CoCl2), YC-1 (Alexis Biochemicals, San Diego, Calif.), Resveratrol or nicotinamide (NAM) as described in the figure legends. All other chemicals were purchased from Sigma Aldrich (Sigma Aldrich, St. Louis, Mo.). Total proteins (30 μg) were lysed with RIPA lysis buffer and separated by sodium dodecylsulfate-polyacrylamide gel electrophoresis. After transfer, the polyvinylidene diflouride membrane was blocked with 5% non-fat milk in Tris-buffered saline with 0.1% Tween-20 (TBST) and then incubated with primary antibodies at 4° C. overnight. After washing, the horseradish peroxidase-conjugated secondary antibodies were added for 30 minutes at room temperature. Antibody binding was visualized by enhanced chemiluminescence reagent (GE Healthcare BioSciences, Buckinghamshire, United Kingdom).
For the reporter assay, cells were seeded in a 24-well plate under triplicate conditions at 80% confluency. Cells were transfected the next day with plasmid pMegaTOPFLASH and pMegaFOPFLASH (β-catenin reporter construct containing LEF1/TCF binding sites) or 5×-HRE (hypoxia response element) and 1 μg of pEF1/Myc-His/LacZ plasmid using Lipofectamine 2000 (Invitrogen, Carlsbad, Calif.). Six hours after transfection, the media was replaced with DMEM/F12 media. 24 hours after transfection, cells were either pre-treated with drugs for one hour or incubated in hypoxia 1% for 24 hours as mentioned in the figure legends. After 2 days, luciferase and galactosidase expression were measured using the Dual-Light Reporter Gene Assay (Applied Biosystems, Foster City, Calif.) according to the manufacturer's instructions. Luciferase activity was normalized to β-galactosidase activity as an internal transfection control.

AML12 hepatocytes [2] = test: Intracellular ROS levels by DCF-DA flow cytometry; assay type: cell-based, mouse; settings: one hour pre-treatment with NAC (2 mmol/L)
Experimental: as §1, with “hrs. The fluorescent probe, dichlorofluorescein diacetate (DCF-DA) (Invitrogen, Carlsbad, Calif.), was used to monitor the intracellular generation of ROS induced by hypoxia. After cells were incubated with 10 μmol/l DCF-DA for 30 min as previously described (67), cells were trypsinized, pelleted by centrifugation and resuspended in phosphate-buffered saline for FACS analysis by using a FACS LSRII flow cytometer (Becton Dickinson, San Diego, Calif.). The oxidized form of DCF-DA was excited at 488 nm and detected at 530 nm. Data were analyzed using CellQuest software.” for “hrs.”

Structure (SMILES): OCc1ccc(-c2nn(Cc3ccccc3)c3ccccc23)o1 [YC-1, 3-(5′-hydroxymethyl-2′-furyl)-1-benzylindazole]
- HIF-1 signal activity (HRE reporter) under hypoxia (HIF-1; hypoxia, pre-treatment with YC-1 (100 μmol/L) for 1 hour): significantly reduced HRE activity; also recorded: inhibits the hypoxia-induced increase in HIF-1 signal activity
- Apoptosis under hypoxia (MTT assay, caspase-cleaved K18Asp237) (AML12 hepatocytes [1]): induced significant apoptosis; also recorded: more apoptosis

Structure (SMILES): Oc1ccc(C=Cc2cc(O)cc(O)c2)cc1 [resveratrol]
- β-catenin/TCF signal transduction (Sirt1 agonist) (β-catenin/TCF signaling; hepatocytes, Sirt1 agonist): significantly inhibited β-catenin/TCF signal transduction

Structure (SMILES): CC(=O)N[C@@H](CS)C(=O)O [NAC, N-acetylcysteine]
- β-catenin/TCF signaling (reporter activity) under hypoxia (β-catenin/TCF signaling; AML12 hepatocytes, hypoxia, one hour pre-treatment with NAC (2 mmol/L)): diminish the suppressive effect of hypoxia derived ROS on β-catenin/TCF signal transduction; also recorded: prevents hypoxia-induced inhibition of β-catenin/TCF signaling
- Intracellular ROS levels under hypoxia (AML12 hepatocytes [2]): decrease intracellular ROS; also recorded: significantly prevents ROS production under hypoxia

Structure (SMILES): NC(=O)c1cccnc1 [NAM, nicotinamide]
- Hypoxia-induced suppression of TCF signaling (Sirt1 inhibition) (β-catenin/TCF signaling; hepatocytes under hypoxia, addition of Sirt1 inhibitor): abolished this effect

Structure (SMILES): [Cl][Co][Cl] [CoCl2, cobalt chloride]
- β-catenin/TCF reporter activity after HIF-1α stabilization (β-catenin/TCF signaling; AML12 hepatocytes, CoCl2 (150 μmol/L) under normoxia or hypoxia): significant reduction in TCF signal transduction; also recorded: reduced
- HIF-1α induction (HRE reporter assay and immunoblot) (HIF-1; CoCl2 (150 μmol/L)): HIF-1α induction was verified
